These are literature values, as cited in patent publication US20030198685A1 (priority 2002, published 2003).

Where two headings read alike, the source gives them in different places.

For data set [1] the following is noted: after supplementation.
The conditions of data set [2]: female rats, constant infusion.
Test in data set [3]: not given
This is another data set of the same source.

Data set [4] relates to prostate and seminal vesicle weights; levator ani muscles.
For data set [5] the following is noted: Caucasian group of hypogonadal men.
For data set [6] the following is noted: 300 mg/wk for six weeks.
The conditions of data set [7]: pharmacological doses, HIV-infected men.
The conditions of data set [8]: nandrolone use.
Test in data set [9]: not given
The source holds these as a separate data set.

For data set [10] the following is noted: patients on dialysis.
In another data set the test system is androgen receptor. Conditions: seminal vesicle; parent versus 5-alpha-reduced metabolite.

As to `C[C@]12CC[C@H]3[C@@H](CCC4=C[C@@H](O)CC[C@@]43C)[C@@H]1CC[C@@H]2O` [4-androstenediol], in data set [1], the “urine testosterone concentration relative to 4-androstenedione” value was 10 fold. Moreover, the “human serum testosterone levels” value (human) is given as “elevations”.
With `C[C@]12CCC(=O)C=C1CC[C@@H]1[C@@H]2CC[C@]2(C)C(=O)CC[C@@H]12` [4-androstenedione], the serum testosterone result (supplementation) is “elevations”.
In the case of `C[C@]12CC[C@H]3[C@@H](CC=C4C[C@@H](O)CC[C@@]43C)[C@@H]1CC[C@@H]2O` [5-androstenediol], the “proportion of protein in the body composition” value in data set [2] was “increased”.
Consider `C[C@]12CC[C@H](O)CC1=CC[C@@H]1[C@@H]2CC[C@]2(C)C(=O)CC[C@@H]12` [DHEA, dehydro-epiandrosterone], for which the figures for the plasma testosterone result in data set [3] (50 mg dose of DHEA) and in data set [3] (200 mg dose of DHEA) were “levels similar to those observed in young women” and “slightly below the levels observed in normal men”, respectively. The “increase of plasma delta 4-androstenedione” value in data set [3] (50 mg or 200 mg DHEA) was “significant and dose dependent”. Also, the “plasma estrogens, particularly estradiol” value in data set [3] (50 mg or 200 mg DHEA) was “significant and dose dependent increase”. The “increase of plasma dihydrotestosterone levels” value in data set [3] (both doses of DHEA) is on record as “small”.
As to `C[C@@H]1CC2=CC(=O)CC[C@@H]2[C@H]2CC[C@]3(C)[C@@H](O)CC[C@H]3[C@@H]21` [MENT, 7α-methyl-19-nor-testosterone], the “androgenic potency relative to testosterone” value in [4] (measured by prostate and seminal vesicle weights) is on record as “four- to five-times”. Moreover, in [4] (measured in the levator ani muscles), the “anabolic potency relative to testosterone” value is on record as “ten-times”. Moreover, the “sexual interest and activity, spontaneous erection” value in data set [5] is “significant increases”.
With `CCCCCCC(=O)O[C@H]1CC[C@H]2[C@@H]3CCC4=CC(=O)CC[C@]4(C)[C@H]3CC[C@]12C` [TE, testosterone enanthate], in data set [6], the “body circumferences with significant increases (of fifteen)” value was “shoulders”. Further, the “sexual interest and activity, spontaneous erection” value in data set [5] was “significant increases”.
`CCCCCCCCCC(=O)O[C@H]1CC[C@H]2[C@@H]3CCC4=CC(=O)CC[C@@H]4[C@H]3CC[C@]12C` [nandrolone decanoate, 19-nor-testosterone decanoate]: the “body circumferences with significant increases (of fifteen)” value in data set [6] was “shoulders and chest”. In addition, the “total weight, lean body mass, body cell mass, muscle size and strength” value in [7] is “significant gains”.
Take `C[C@]12CC[C@H]3[C@@H](CCC4=CC(=O)CC[C@@H]43)[C@@H]1CC[C@@H]2O` [nandrolone, 19-nor-testosterone]: the effect on sperm result in data set [8] is “azoospermia”. Also, in [2], the energy expenditure result is on record as “increased”. In addition, the “decrease in HDL-cholesterol” value in [9] (body builders) is recorded as 25-27%. Further, the lean body mass result in [9] (body builders ingesting nandrolone) is “Superior increases”. Further, the “lean body mass compared with placebo” value in data set [10] was “increased significantly”.
For `C[C@]12CC[C@H]3[C@@H](CCC4=CC(=O)CC[C@@]43C)[C@@H]1CC[C@@H]2O` [testosterone], the “change of affinity to the androgen receptor on 5-alpha-reduction” value in the data set on androgen receptor is “increasing by seven- to eight-fold”. In addition, the “proportion of protein in the body composition” value in data set [2] is listed as “increased”.
